Source: patent publication US20260232706A1, “1H-PYRAZOLE ANALOGUES AND METHODS AND USES THEREOF” (University of Manitoba, priority 2022, published 2026)
Where “and” joins values, the source holds several entries; their conditions need not be identical. Equal entries are not always repeated. Entries after “also recorded” stand apart in the source; their conditions may differ.

Test system: SOD1-G37R mouse model of ALS, Het G37R (Line 42) mice
Experiment: Therapeutic efficacy in the SOD1-G37R mouse model of ALS
Format: in vivo
Experimental: Methods: B^5-EDR analogues were synthesized as described in Example 1. The specific methodology employed for this Example is described below. All the statistical analyses were carried out by using GraphPad Prism […] software (version 9.5.1 (733)), (GraphPad Software, La Jolla, CA). Statistical significance was performed using a two-tailed unpaired t-test used for body weight assessment, disease onset, survival, and weight loss comparisons. Kaplan-Meier survival analysis and log rank test was also used for survival analysis. For these in vivo studies, disease onset or symptom onset was defined by two criteria. The first criteria is defined by the loss of 10% body weight based on the highest recorded weight during the age of the mice after pre symptom onset treatment study. The loss of 10% body weight is often accompanied by appearance of symptoms of muscle weakness and the second criteria of disease onset, which is retrospectively defined as the age at which the mouse reaches peak weight. Mice were assessed and monitored daily by trained staff for weight and muscle weakness starting at 90 days of age i.e., well before clinical onset of disease. According to the common consensus among ALS scientific community, the disease onset is defined as a time when mice have reached their peak body weight well before the denervation induced muscle atrophy and weight loss.
Transgenic mice carrying human G37R mutant SOD1 [B6.Cg Tg(SOD1*G37R)42Dpr/J] were obtained from the Jackson Laboratory (Bar Harbor, ME, USA). These mice were crossed with female mice with a C57BL/6 background for at least four generations. Colonies are maintained in the Central Animal Care Services (CACS), University of Manitoba. The mice were used in accordance with the Guide of Care and Use of Experimental Animals of the Canadian Council on Animal Care. Transgenic offspring were genotyped by PCR of DNA obtained from ear biopsies, see (ia) below, using a protocol provided by the Jackson Laboratory.
For these experiments, a set of experiments was carried out having two groups of mice: • Group 1: Sham treatment (1:20 DMSO/PBS); and • Group 2: NS-1-2 treatment (1:20 DMSO/PBS) (10 mg/kg body weight/day). For these experiments, age matched Het G37R (Line 42) mice were administered vehicle (1:20, DMSO:PBS) or treatment (NS-1-2; 10 mg/kg bodyweight), daily, starting at the age of 90 days until the age of 210 days, and monitored daily for several significant humane point indicators including, a) Mouse unable to right itself in 15 sec b) 25% loss of weight on the highest recorded weight c) Full paralysis of one or more hind limbs d) Loss of bladder functions e) Crusty eyes/loss of vision and/or f) Penile prolapse.
For weight loss experiments, weight loss was based on highest recorded weight (humane end point).
For disease onset experiments, symptom onset was assessed (i.e. loss of 10% body weight based on the highest recorded weight with muscle weakness and time to peak body weight (days), was assessed and monitored daily by trained staff starting at 90 days of age i.e., well before pre-symptom onset of disease also, monitored daily for several significant humane point indicators including a) Mouse unable to right itself in 15 sec b) 25% loss of weight on the highest recorded weight c) Full paralysis of one or more hind limbs d) Loss of bladder functions e) Crusty eyes/loss of vision f) Penile prolapse. One tailed (unpaired t test) was performed to analyse age to reach (10%) loss of body weight.

[1] = individual animals, NS-1-2 treatment (N = 10)

## Cc1cc(B2OC(C)(C)C(C)(C)O2)n(-c2ccccc2)n1 [NS-1-2, 3-methyl-5-(4,4,5,5-tetramethyl-1,3,2-dioxaborolan-2-yl)-1-phenyl1H-pyrazole]
10 mg/kg/day IP from age 90 to 210 days
  prolongation of survival age or life span versus control (Kaplan-Meier): 14.5 days
10 mg/kg/day IP from age 90 to 210 days, n=10, FIG. 14
  mean age of survival (humane end point): 196.7 days
10 mg/kg/day IP from age 90 to 210 days, n=10, FIG. 15
  median survival (Kaplan-Meier): 199.5 days
Age to reach peak body weight
  delay of disease onset versus control (Kaplan-Meier): 20 days
Based on highest recorded weight, n=10, FIG. 16
  percentage mean weight loss (humane end point): 17.55%
[1]
  Age to reach 10% loss of body weight based on highest recorded weight with muscle weakness: 199 days and 171 days and 184 days and 180 days and 193 days and 195 days (2×) and 203 days and 196 days and 165 days
  Disease Onset: Age to reach peak body weight: 143 days (2×) and 156 days and 147 days and 154 days and 164 days and 163 days and 188 days and 148 days and 144 days
  Treatment G37R (Survival Days) (Humane End Point): 201 Days (2×) and 205 Days and 189 Days and 195 Days and 198 Days and 203 Days and 197 Days and 204 Days and 174 Days
Individual animals, above or below the 25% criterion
  25% Loss of Weight Based on Highest Recorded Weight (Humane End Point): Weight Loss <25%
Individual animals, humane end point, based on highest recorded weight
  Weight Loss (%): Weight Loss (%): 17.056; also recorded: Weight Loss (%): 18.91; also recorded: Weight Loss (%): 19.67; also recorded: Weight Loss (%): 20; also recorded: Weight Loss (%): 15.68; also recorded: Weight Loss (%): 18.543; also recorded: Weight Loss (%): 10.122; also recorded: Weight Loss (%): 13.66; also recorded: Weight Loss (%): 18.548; also recorded: Weight Loss (%): 23.34
mean, 10 mg/kg/day IP from age 90 to 210 days
  difference in survival versus control: 13.3 days
mouse, in vivo
  delay of disease onset versus control (10% weight loss): around 23.2 days
  delay of disease onset versus control (time to peak body weight, mean): around 23.6 days
n=10, FIG. 17
  disease onset: mean age (loss of 10% body weight with muscle weakness): 188.1 days
n=10, FIG. 18
  disease onset: mean age (time to peak body weight): 155 days
n=10, FIG. 19
  median age to reach peak body weight (Kaplan-Meier, printed as median survival): 151 days
